Data published in article doi:10.1101/2025.10.24.684310v1 (biorxiv, 2025).

Legend:
in vitro [1] = conditions: PAMPA
in vitro [2] = conditions: PAMPA; remark: listed apart in the source
in vitro [3] = conditions: human, liver microsomes
in vitro [4] = conditions: human, liver microsomes; remark: listed apart in the source
in vitro [5] = conditions: human, liver microsomes; remark: listed apart in the source
hERG = hERG (Homo sapiens, UniProt Q12809, species not given); assay: hERG channel inhibition; type: cell-based
hERG, sequence (Q12809 whole entry): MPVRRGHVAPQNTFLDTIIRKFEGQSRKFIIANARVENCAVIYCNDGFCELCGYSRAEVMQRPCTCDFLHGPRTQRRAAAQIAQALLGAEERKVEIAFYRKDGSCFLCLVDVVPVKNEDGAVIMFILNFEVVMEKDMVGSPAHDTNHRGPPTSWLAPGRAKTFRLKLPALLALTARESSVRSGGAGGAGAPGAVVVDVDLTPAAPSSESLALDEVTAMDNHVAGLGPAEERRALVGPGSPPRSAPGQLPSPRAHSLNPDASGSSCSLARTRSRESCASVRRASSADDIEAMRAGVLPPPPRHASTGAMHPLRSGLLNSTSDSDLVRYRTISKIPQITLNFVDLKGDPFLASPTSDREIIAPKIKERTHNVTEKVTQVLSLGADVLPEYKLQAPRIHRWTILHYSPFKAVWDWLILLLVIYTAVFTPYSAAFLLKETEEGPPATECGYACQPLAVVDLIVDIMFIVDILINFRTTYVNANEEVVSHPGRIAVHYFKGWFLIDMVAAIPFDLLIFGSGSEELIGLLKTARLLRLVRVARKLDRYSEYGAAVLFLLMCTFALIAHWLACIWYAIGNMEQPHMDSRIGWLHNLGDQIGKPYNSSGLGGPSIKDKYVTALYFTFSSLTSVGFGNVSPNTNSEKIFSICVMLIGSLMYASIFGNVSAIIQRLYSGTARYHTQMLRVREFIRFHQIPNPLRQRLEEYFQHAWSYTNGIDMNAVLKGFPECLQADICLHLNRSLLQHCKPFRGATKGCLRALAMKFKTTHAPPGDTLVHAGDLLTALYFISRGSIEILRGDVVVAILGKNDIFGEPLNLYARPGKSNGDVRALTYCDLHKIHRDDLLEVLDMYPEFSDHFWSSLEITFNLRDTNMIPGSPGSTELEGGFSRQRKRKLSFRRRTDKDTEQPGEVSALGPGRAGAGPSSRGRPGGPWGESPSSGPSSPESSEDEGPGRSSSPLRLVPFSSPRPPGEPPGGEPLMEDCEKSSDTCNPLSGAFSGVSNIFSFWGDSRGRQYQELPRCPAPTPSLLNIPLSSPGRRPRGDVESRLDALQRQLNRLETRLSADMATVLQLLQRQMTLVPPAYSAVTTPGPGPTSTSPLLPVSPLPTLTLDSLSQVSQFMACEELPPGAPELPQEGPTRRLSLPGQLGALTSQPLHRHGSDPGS

CYP1A2 = target: T1, CYP1A2 (Homo sapiens, UniProt P05177); assay: in vitro
T1 sequence (P05177 1-516): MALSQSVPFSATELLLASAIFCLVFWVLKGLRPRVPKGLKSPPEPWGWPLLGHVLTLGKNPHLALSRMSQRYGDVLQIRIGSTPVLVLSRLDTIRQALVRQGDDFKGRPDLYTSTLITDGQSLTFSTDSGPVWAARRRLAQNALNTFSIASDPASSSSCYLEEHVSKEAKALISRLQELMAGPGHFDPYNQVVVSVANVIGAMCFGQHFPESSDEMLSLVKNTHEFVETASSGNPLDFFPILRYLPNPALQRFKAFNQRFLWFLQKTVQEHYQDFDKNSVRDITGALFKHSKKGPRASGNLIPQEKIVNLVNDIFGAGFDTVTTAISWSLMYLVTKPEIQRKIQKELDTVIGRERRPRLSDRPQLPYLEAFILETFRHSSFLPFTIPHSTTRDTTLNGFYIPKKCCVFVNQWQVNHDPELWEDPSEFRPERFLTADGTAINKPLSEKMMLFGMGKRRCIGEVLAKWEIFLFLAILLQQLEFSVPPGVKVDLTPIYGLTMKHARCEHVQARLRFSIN

CYP2C19 = CYP2C19 (Homo sapiens, UniProt P33261); assay: in vitro
CYP2C19, sequence (P33261 whole entry): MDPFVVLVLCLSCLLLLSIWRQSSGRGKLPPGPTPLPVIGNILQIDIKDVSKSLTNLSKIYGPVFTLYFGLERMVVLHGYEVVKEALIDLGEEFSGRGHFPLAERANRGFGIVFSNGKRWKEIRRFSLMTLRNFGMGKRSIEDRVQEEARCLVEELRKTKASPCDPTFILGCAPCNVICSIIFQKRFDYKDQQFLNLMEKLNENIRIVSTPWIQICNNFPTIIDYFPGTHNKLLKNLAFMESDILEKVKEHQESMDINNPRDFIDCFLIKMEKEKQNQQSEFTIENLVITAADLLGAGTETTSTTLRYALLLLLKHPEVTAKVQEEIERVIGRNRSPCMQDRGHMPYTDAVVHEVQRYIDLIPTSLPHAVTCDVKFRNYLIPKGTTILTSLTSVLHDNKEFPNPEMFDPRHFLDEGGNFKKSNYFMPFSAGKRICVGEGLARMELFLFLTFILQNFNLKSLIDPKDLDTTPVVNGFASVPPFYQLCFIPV

CYP2D6 = CYP2D6 (Homo sapiens, UniProt P10635); assay: in vitro
CYP2D6, sequence (P10635 whole entry): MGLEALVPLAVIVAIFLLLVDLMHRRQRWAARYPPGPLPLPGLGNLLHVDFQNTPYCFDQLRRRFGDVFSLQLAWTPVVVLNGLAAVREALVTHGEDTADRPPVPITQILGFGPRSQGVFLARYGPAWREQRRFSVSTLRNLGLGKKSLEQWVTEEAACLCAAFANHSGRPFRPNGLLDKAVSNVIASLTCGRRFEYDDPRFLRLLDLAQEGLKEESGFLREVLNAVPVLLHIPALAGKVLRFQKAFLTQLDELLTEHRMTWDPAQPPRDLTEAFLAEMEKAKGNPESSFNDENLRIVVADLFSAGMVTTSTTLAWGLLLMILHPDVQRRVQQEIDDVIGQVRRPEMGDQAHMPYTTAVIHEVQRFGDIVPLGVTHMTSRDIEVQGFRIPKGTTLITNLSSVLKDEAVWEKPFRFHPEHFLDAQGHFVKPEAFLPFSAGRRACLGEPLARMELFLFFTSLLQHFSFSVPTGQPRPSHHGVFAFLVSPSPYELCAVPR

CYP2C9 = CYP2C9 (Homo sapiens, UniProt P11712); assay: in vitro
CYP2C9, sequence (P11712 whole entry): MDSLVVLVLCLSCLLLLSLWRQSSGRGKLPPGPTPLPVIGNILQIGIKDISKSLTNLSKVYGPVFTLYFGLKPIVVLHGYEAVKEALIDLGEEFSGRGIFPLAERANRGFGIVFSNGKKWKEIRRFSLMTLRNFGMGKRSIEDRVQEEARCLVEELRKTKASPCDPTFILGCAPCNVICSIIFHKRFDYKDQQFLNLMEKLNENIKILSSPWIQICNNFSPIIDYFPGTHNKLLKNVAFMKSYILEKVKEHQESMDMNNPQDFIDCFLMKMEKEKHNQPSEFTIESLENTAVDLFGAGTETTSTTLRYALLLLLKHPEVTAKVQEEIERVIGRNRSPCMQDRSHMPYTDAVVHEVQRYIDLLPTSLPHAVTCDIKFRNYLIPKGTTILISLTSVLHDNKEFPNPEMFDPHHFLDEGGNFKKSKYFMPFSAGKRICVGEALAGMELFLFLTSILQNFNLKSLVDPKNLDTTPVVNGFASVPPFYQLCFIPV

CC1=C(C(=O)Nc2ccc(Cl)cc2)C(c2ccc(Cl)cc2)NC(=O)N1 (stereo not shown) [CU2]
Papp (in vitro [1]): 7.7 ± 0.2 ×10⁻⁶ cm/s

CCOC(=O)C1=C(C)NC(=S)NC1c1ccc(OCC)cc1 (stereo not shown) [T10]
Papp (in vitro [2]): 0.1 ×10⁻⁶ cm/s

CCOC(=O)C1=C(C)NC(=S)NC1c1ccc(C(F)(F)F)cc1 (stereo not shown) [T6]
Papp (in vitro [2]): > 30 ×10⁻⁶ cm/s

CCOC(=O)C1=C(C)NC(=O)NC1c1ccc(C(F)(F)F)cc1 (stereo not shown) [U6]
Papp (in vitro [2]): 11.5 ± 0.4 ×10⁻⁶ cm/s

CC1=C(C(=O)Nc2ccc(Cl)cc2)C(c2ccccc2)NC(=O)N1 (stereo not shown) [CU1]
Papp (in vitro [1]): 9.5 ± 0.2 ×10⁻⁶ cm/s

CCOC(=O)C1=C(C)NC(=O)NC1c1ccc(F)cc1 (stereo not shown) [U14]
Papp (in vitro [2]): 6.2 ± 0.3 ×10⁻⁶ cm/s

COc1ccc(C2NC(=S)NC(C)=C2C(=O)Nc2ccc(Cl)cc2)cc1 (stereo not shown) [CT3]
Papp (in vitro [1]): 3.4 ± 0.3 ×10⁻⁶ cm/s

COC(=O)C1=C(C)NC(=S)NC1c1cccc(OC)c1 (stereo not shown) [T14]
Papp (in vitro [2]): 3.5 ± 0.6 ×10⁻⁶ cm/s

CCOC(=O)C1=C(C)NC(=S)NC1c1ccc(Cl)cc1 (stereo not shown) [T2]
Papp (in vitro [2]): 12.2 ± 0.7 ×10⁻⁶ cm/s
remaining at 1 h (in vitro [3]): 77.7%
microsomal CLint (in vitro [4]): 7.8 µL/min/mg
half-life (in vitro [5]): 2.36 h
IC50 (hERG): > 10 µM

CCOC(=O)C1=C(C)NC(=S)NC1c1ccc(OC)cc1 (stereo not shown) [T3]
Papp (in vitro [2]): 8.1 ± 0.5 ×10⁻⁶ cm/s
IC50 (hERG): > 10 µM

CC1=C(C(=O)Nc2ccc(Cl)cc2)C(c2ccc(C)cc2)NC(=O)N1 (stereo not shown) [CU4]
Papp (in vitro [1]): 5.3 ± 0.2 ×10⁻⁶ cm/s

CCOC(=O)C1=C(C)NC(=O)NC1c1cccc(O)c1 (stereo not shown) [U13]
Papp (in vitro [2]): 0.003 ± 0.001 ×10⁻⁶ cm/s

CC1=C(C(=O)Nc2ccc(Cl)cc2)C(c2ccc(Cl)c(Cl)c2)NC(=S)N1 (stereo not shown) [CT5]
Papp (in vitro [1]): 7.6 ± 1 ×10⁻⁶ cm/s

CCOC(=O)C1=C(C)NC(=O)NC1c1ccc(Cl)c(Cl)c1 (stereo not shown) [U5]
Papp (in vitro [2]): 15.8 ± 0.5 ×10⁻⁶ cm/s

COC(=O)C1=C(C)NC(=O)NC1c1ccccc1 (stereo not shown) [U15, Methyl 6-methyl-2-oxo-4-phenyl-1,2,3,4-tetrahydropyrimidine-5-carboxylate]
remaining at 1 h (in vitro [3]): 93%
microsomal CLint (in vitro [4]): 1.2 µL/min/mg
half-life (in vitro [5]): 10.7 h

CCOC(=O)C1=C(C)NC(=S)NC1c1ccccc1Cl (stereo not shown) [T9, Ethyl 4-(2-chlorophenyl)-6-methyl-2-thioxo-1,2,3,4-tetrahydropyrimidine-5-carboxylate]
remaining at 1 h (in vitro [3]): 82.4%
microsomal CLint (in vitro [4]): 3 µL/min/mg
half-life (in vitro [5]): 3.69 h

COC(=O)C1=C(C)NC(=O)NC1c1cccc(Br)c1 (stereo not shown) [U12]
Papp (in vitro [2]): 2 ± 0.2 ×10⁻⁶ cm/s

CCOC(=O)C1=C(C)NC(=S)NC1c1cccc(O)c1 (stereo not shown) [T12]
Papp (in vitro [2]): 17.7 ± 0.9 ×10⁻⁶ cm/s

CCOC(=O)C1=C(C)NC(=S)NC1c1ccc(Cl)c(Cl)c1 (stereo not shown) [T5]
Papp (in vitro [2]): 16.2 ± 0.5 ×10⁻⁶ cm/s

COc1ccc(C2NC(=O)NC(C)=C2C(=O)Nc2ccc(Cl)cc2)cc1 (stereo not shown) [CU3]
Papp (in vitro [1]): 5.9 ± 0.2 ×10⁻⁶ cm/s

CC1=C(C(=O)Nc2ccc(Cl)cc2)C(c2ccc(C)cc2)NC(=S)N1 (stereo not shown) [CT4]
Papp (in vitro [1]): 4.6 ± 0.2 ×10⁻⁶ cm/s

CC1=C(C(=O)Nc2ccc(Cl)cc2)C(c2ccccc2)NC(=S)N1 (stereo not shown) [CT1]
Papp (in vitro [1]): 3.6 ± 0.1 ×10⁻⁶ cm/s

CC1=C(C(=O)Nc2ccc(Cl)cc2)C(c2ccc(Cl)c(Cl)c2)NC(=O)N1 (stereo not shown) [CU5]
Papp (in vitro [1]): 13.6 ± 0.5 ×10⁻⁶ cm/s

CCOC(=O)C1=C(C)NC(=S)NC1c1ccc(F)cc1 (stereo not shown) [T13]
Papp (in vitro [2]): 18.4 ± 1.6 ×10⁻⁶ cm/s

CCOC(=O)C1=C(C)NC(=O)NC1c1ccc(Cl)cc1Cl (stereo not shown) [U7]
Papp (in vitro [2]): 15.3 ± 1 ×10⁻⁶ cm/s

CCOC(=O)C1=C(C)NC(=S)NC1c1ccc(OC)cc1 (stereo not shown) [T3, Ethyl 4-(4-methoxyphenyl)-6-methyl-2-thioxo-1,2,3,4-tetrahydropyrimidine-5-carboxylate]
inhibition at 1 µM (CYP1A2): -13.3 ± 2%
inhibition at 1 µM (CYP2C19): 11.7 ± 4.5%
inhibition at 1 µM (CYP2D6): -3.2 ± 0.2%
inhibition at 1 µM (CYP2C9): 3.7 ± 1.1%

CC1=C(C(=O)Nc2ccc(Cl)cc2)C(c2ccc(Cl)cc2)NC(=S)N1 (stereo not shown) [CT2]
Papp (in vitro [1]): 7.1 ± 0.1 ×10⁻⁶ cm/s

CCOC(=O)C1=C(C)NC(=S)NC1c1ccc(C)cc1 (stereo not shown) [T4]
Papp (in vitro [2]): 10.3 ± 0.3 ×10⁻⁶ cm/s

CCOC(=O)C1=C(C)NC(=O)NC1c1ccc(F)cc1 (stereo not shown) [U14, Ethyl 4-(4-fluorophenyl)-6-methyl-2-oxo-1,2,3,4-tetrahydropyrimidine-5-carboxylate]
remaining at 1 h (in vitro [3]): 74.1%
microsomal CLint (in vitro [4]): 5.4 µL/min/mg
half-life (in vitro [5]): 2.47 h
